Data as given in PubChem BioAssay (NCI).
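Tested at 5 concentrations; 48 h exposure; 96-well plates; endpoints linearly interpolated, else capped at highest concentration. GI50 marks 50% less growth. TGI marks complete inhibition of growth.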

Key:
Assay in all cases: growth of human tumour cells (NCI), 48 h
[1] = tested on: SK-MEL-2 melanoma
[2] = tested on: NCI-H23 lung
[3] = tested on: NCI-H226 lung
[4] = tested on: IGROV1 ovarian
[5] = tested on: NCI-H460 lung
[6] = tested on: OVCAR-8 ovarian
[7] = tested on: UO-31 renal
[8] = tested on: SK-OV-3 ovarian
[9] = tested on: PC-3 prostate
[10] = tested on: ACHN renal
[11] = tested on: TK-10 renal
[12] = tested on: SF-539 CNS
[13] = tested on: RPMI-8226 leukemia
[14] = tested on: U251 CNS
[15] = tested on: T-47D breast
[16] = tested on: SN12C renal
[17] = tested on: SNB-19 CNS
[18] = tested on: LOX IMVI melanoma
[19] = tested on: SK-MEL-28 melanoma
[20] = tested on: HCT-116 colon
[21] = tested on: UACC-257 melanoma
[22] = tested on: HCC-2998 colon
[23] = tested on: HOP-92 NSCLC
[24] = tested on: OVCAR-5 ovarian
[25] = tested on: MDA-MB-435
[26] = tested on: OVCAR-4 ovarian
[27] = tested on: NCI-H522 lung
[28] = tested on: EKVX NSCLC
[29] = tested on: DU-145 prostate
[30] = tested on: A498 renal
[31] = tested on: A549 NSCLC
[32] = tested on: MDA-MB-231 breast
[33] = tested on: SW-620 colon
[34] = tested on: MALME-3M melanoma
[35] = tested on: COLO 205 colon
[36] = tested on: BT-549 breast
[37] = tested on: CAKI-1 renal
[38] = tested on: HT29 colon
[39] = tested on: OVCAR-3 ovarian
[40] = tested on: MCF7 breast
[41] = tested on: SF-268 CNS
[42] = tested on: KM12 colon
[43] = tested on: SK-MEL-5 melanoma
[44] = tested on: 786-0 renal
[45] = tested on: UACC-62 melanoma
[46] = tested on: HCT-15 colon
[47] = tested on: SF-295 CNS
[48] = tested on: RXF 393 renal

Cc1ccc(S(=O)(=O)c2ccccc2)cc1
GI50 [1]: 3.01 µM | TGI [1]: > 100 µM | GI50 [2]: 6.14 µM | TGI [2]: > 100 µM | GI50 [3]: 16.6 µM | TGI [3]: > 100 µM | GI50 [4]: 3.97 µM | TGI [4]: > 100 µM | GI50 [5]: 3.26 µM | TGI [5]: 21.1 µM | GI50 [6]: 5.77 µM | TGI [6]: > 100 µM | GI50 [7]: 5.7 µM | TGI [7]: > 100 µM | GI50 [8]: 3.89 µM | TGI [8]: 42.2 µM | GI50 [9]: 4.24 µM | TGI [9]: > 100 µM | GI50 [10]: 11.7 µM | TGI [10]: > 100 µM | GI50 [11]: 5.65 µM | TGI [11]: > 100 µM | GI50 [12]: 2550 nM | TGI [12]: 7 µM | GI50 [13]: 3.4 µM | TGI [13]: 9.87 µM | GI50 [14]: 4.32 µM | TGI [14]: > 100 µM | GI50 [15]: 6.43 µM | TGI [15]: > 100 µM | GI50 [16]: 5.37 µM | TGI [16]: > 100 µM | GI50 [17]: 4.73 µM | TGI [17]: > 100 µM | GI50 [18]: 5.05 µM | TGI [18]: > 100 µM | GI50 [19]: 5.65 µM | TGI [19]: > 100 µM | GI50 [20]: 3.86 µM | TGI [20]: > 100 µM | GI50 [21]: 42 µM | TGI [21]: > 100 µM | GI50 [22]: 6.82 µM | TGI [22]: 64.4 µM | GI50 [23]: 2620 nM | TGI [23]: 26.2 µM | GI50 [24]: 8.44 µM | TGI [24]: > 100 µM | GI50 [25]: 834 nM | TGI [25]: 5.06 µM | GI50 [26]: 22.2 µM | TGI [26]: > 100 µM | GI50 [27]: 1820 nM | TGI [27]: 4.68 µM | GI50 [28]: 3.87 µM | TGI [28]: > 100 µM | GI50 [29]: 2780 nM | TGI [29]: 7.9 µM | GI50 [30]: 2800 nM | TGI [30]: 29.5 µM | GI50 [31]: 4.27 µM | TGI [31]: > 100 µM | GI50 [32]: 3.63 µM | TGI [32]: > 100 µM | GI50 [33]: 3.2 µM | TGI [33]: > 100 µM | GI50 [34]: 4.76 µM | TGI [34]: > 100 µM | GI50 [35]: 2710 nM | TGI [35]: 6.3 µM | GI50 [36]: 8.05 µM | TGI [36]: > 100 µM | GI50 [37]: 2390 nM | TGI [37]: > 100 µM | GI50 [38]: 2700 nM | TGI [38]: 48.9 µM | GI50 [39]: 2320 nM | TGI [39]: 5.02 µM | GI50 [40]: 4 µM | TGI [40]: > 100 µM | GI50 [41]: 5.82 µM | TGI [41]: > 100 µM | GI50 [42]: 3.45 µM | TGI [42]: 68.5 µM | GI50 [43]: 4.01 µM | TGI [43]: > 100 µM | GI50 [44]: 8.08 µM | TGI [44]: > 100 µM | GI50 [45]: 4.61 µM | TGI [45]: > 100 µM | GI50 [46]: 4.91 µM | TGI [46]: > 100 µM | GI50 [47]: 2550 nM | TGI [47]: 9.03 µM | GI50 [48]: 2620 nM | TGI [48]: 7.54 µM
